Source: patent US9326513B2, “Fungicidal compositions” (Syngenta Participations AG, priority 2011, dated 2016)
Where two headings read alike, the source gives them in different places.

How the values were obtained:
[1] = test system: Monographella nivalis (syn. Microdochium nivale, Fusarium nivale); experiment: Monographella nivalis (snow mould, foot rot of cereals), PDB microtiter plate, visual after 72 hrs; type: cell-based
Botrytis cinerea = Botrytis cinerea (gray mould), PDB microtiter plate, visual after 72 hrs; type: cell-based
Pyrenophora teres = Pyrenophora teres / barley / leaf disc preventative (net blotch); type: in vivo; details: foliar, compared to untreated control leaf disks, read-out: disease control
Source text: Pyrenophora teres/Barley/Leaf Disc Preventative (Net Blotch) Barley leaf segments cv. Hasso were placed on agar in a multiwell plate (24-well format) and sprayed with the formulated test compound diluted in water. The leaf segments were inoculated with a spore suspension of the fungus 2 days after application.

[2] = test system: Blumeria graminis f. sp. tritici (Erysiphe graminis f. sp. tritici); experiment: Blumeria graminis f. sp. tritici / wheat / leaf disc preventative (powdery mildew on wheat); type: in vivo; details: foliar, compared to untreated control leaf disks, read-out: disease control
Procedure, shortened: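 Preventative leaf-disc test: compound (200 ppm) was sprayed onto cv. Kanzler wheat segments, which were dusted with conidia from infected plants 1 day after application. After incubation at 20° C and 60% rh, disease control relative to untreated segments was rated 6-8 days after application.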

[3] = test system: Puccinia recondita f. sp. tritici; experiment: Puccinia recondita f. sp. tritici / wheat / leaf disc preventative (brown rust); type: in vivo; details: foliar, compared to untreated control leaf disks, read-out: disease control
Source text: Puccinia recondita f. sp. tritici/Wheat/Leaf Disc Preventative (Brown Rust) Wheat leaf segments cv. Kanzler were placed on agar in multiwell plates (24-well format) and sprayed with the formulated test compound diluted in water. The leaf disks were inoculated with a spore suspension of the fungus 1 day after application.

[4] = test system: Puccinia recondita f. sp. tritici; experiment: Puccinia recondita f. sp. tritici / wheat / leaf disc curative (brown rust); type: in vivo; details: foliar, compared to untreated control leaf disks, read-out: disease control
Protocol: Puccinia recondita f. sp. tritici/Wheat/Leaf Disc Curative (Brown Rust) Wheat leaf segments cv. Kanzler are placed on agar in multiwell plates (24-well format). The leaf segments are inoculated with a spore suspension of the fungus. Plates were stored in darkness at 19° C. and 75% rh. The formulated test compound diluted in water was applied 1 day after inoculation.

[5] = Monographella nivalis, applied alone, 0.0625 ppm
[6] = Monographella nivalis, applied alone
[7] = Monographella nivalis, applied alone, rate 0.3125 ppm
[8] = Monographella nivalis, applied alone, rate 0.625 ppm
[9] = Monographella nivalis, applied alone, rate 1.25 ppm
[10] = Monographella nivalis, applied alone, rate 2.5 ppm
[11] = Monographella nivalis, single compound, rate 5 ppm
[12] = Botrytis cinerea, alone, rate 0.625 ppm
[13] = Botrytis cinerea, alone, rate 1.25 ppm
[14] = Botrytis cinerea, alone, rate 2.5 ppm, read-out: Activity (%)
[15] = applied alone, rate 0.15625 ppm

CON(C(=O)c1cn(C)nc1C(F)F)C(C)Cc1c(Cl)cc(Cl)cc1Cl (centres unmarked) [(VI), 3-(difluoromethyl)-N-methoxy-1-methyl-N-[1-methyl-2-(2,4,6-trichlorophenyl)ethyl]-1H-pyrazole-4-carboxamide, reference compound]
0%: inhibition at 0.0625 ppm [1, 5]
20%: inhibition at 0.0078125 ppm (Botrytis cinerea; Botrytis cinerea, alone, rate 0.0078125 ppm)
70%: inhibition at 0.03125 ppm (Botrytis cinerea; Botrytis cinerea, alone, rate 0.03125 ppm, read-out: Activity (%)) | inhibition at 0.0625 ppm (Botrytis cinerea; Botrytis cinerea, alone, rate 0.0625 ppm, read-out: Activity (%))
50%: inhibition at 0.125 ppm [1, 6] | inhibition at 0.015625 ppm (Botrytis cinerea; Botrytis cinerea, alone, rate 0.015625 ppm)

CS(=O)(=O)c1ccc(C(=O)C2C(=O)CCCC2=O)c([N+](=O)[O-])c1 [Mesotrione]
0%: inhibition at 2.5 ppm ([1]; Monographella nivalis, applied alone, 2.5 ppm) | inhibition at 5 ppm ([1]; Monographella nivalis, applied alone, 5 ppm) | inhibition at 0.078125 ppm ([1]; Monographella nivalis, applied alone, rate 0.078125 ppm) | inhibition at 0.15625 ppm ([1]; Monographella nivalis, applied alone, rate 0.15625 ppm) | inhibition at 0.3125 ppm [1, 7] | inhibition at 0.625 ppm [1, 8] | inhibition at 1.25 ppm [1, 9] | inhibition at 2.5 ppm [1, 10] | inhibition at 10 ppm ([1]; Monographella nivalis, single compound, rate 10 ppm) | inhibition at 20 ppm ([1]; Monographella nivalis, single compound, rate 20 ppm) | inhibition at 5 ppm [1, 11] | inhibition at 0.625 ppm (Botrytis cinerea; [12]) | inhibition at 1.25 ppm (Botrytis cinerea; [13]) | inhibition at 2.5 ppm (Botrytis cinerea; [14]) | inhibition at 5 ppm (Botrytis cinerea; Botrytis cinerea, alone, rate 5 ppm, read-out: Activity (%)) | inhibition at 10 ppm (Botrytis cinerea; Botrytis cinerea, alone, rate 10 ppm, read-out: Activity (%))

N#Cc1c(Cl)c(Cl)c(Cl)c(C#N)c1Cl [Chlorotalonil]
20%: Activity (%) (Botrytis cinerea; alone, rate 0.25 ppm)
0%: Activity (%) (Botrytis cinerea; alone, rate 0.0625 ppm) | Activity (%) (Botrytis cinerea; alone, rate 0.125 ppm)

Abamectin
50%: Activity (%) ([1]; applied alone, 20 ppm)
0%: Activity (%) ([1]; applied alone, 5 ppm) | Activity (%) ([1]; applied alone, 10 ppm) | Activity (%) [1, 15] | Activity (%) ([1]; applied alone, rate 0.3125 ppm) | Activity (%) ([1]; applied alone, rate 0.625 ppm) | Activity (%) ([1]; applied alone, rate 1.25 ppm) | Activity (%) ([1]; applied alone, rate 2.5 ppm) | Activity (%) (Botrytis cinerea; alone, rate 1.25 ppm) | Activity (%) (Botrytis cinerea; alone, rate 2.5 ppm) | Activity (%) (Botrytis cinerea; alone, rate 5 ppm) | Activity (%) (Botrytis cinerea; alone, rate 10 ppm) | Activity (%) (Botrytis cinerea; alone, rate 20 ppm)

CC/C=C\CC1=C(C)CCC1=O [cis-Jasmone]
0%: Activity (%) ([1]; applied alone, 0.625 ppm) | Activity (%) ([1]; applied alone, 1.25 ppm) | Activity (%) ([1]; applied alone, 2.5 ppm) | Activity (%) ([1]; applied alone, 5 ppm) | Activity (%) [1, 15] | Activity (%) ([1]; applied alone, rate 0.3125 ppm) | Activity (%) ([1]; applied alone, rate 0.625 ppm) | Activity (%) ([1]; applied alone, rate 1.25 ppm) | Activity (%) (Botrytis cinerea; alone, rate 0.625 ppm) | Activity (%) (Botrytis cinerea; alone, rate 1.25 ppm) | Activity (%) (Botrytis cinerea; alone, rate 2.5 ppm) | Activity (%) (Botrytis cinerea; alone, rate 5 ppm)

N#Cc1c(Cl)c(Cl)c(Cl)c(C#N)c1Cl [Chlorothalonil]
20%: inhibition at 0.0625 ppm [1, 5]
70%: inhibition at 0.125 ppm [1, 6]
0%: inhibition at 0.03125 ppm ([1]; Monographella nivalis, applied alone, 0.03125 ppm)

CN1COCN(Cc2cnc(Cl)s2)/C1=N\[N+](=O)[O-] [Thiamethoxam]
0%: inhibition at 0.3125 ppm [1, 7] | inhibition at 0.625 ppm [1, 8] | inhibition at 2.5 ppm [1, 10] | inhibition at 5 ppm ([1]; Monographella nivalis, applied alone, rate 5 ppm) | inhibition at 0.625 ppm (Botrytis cinerea; [12]) | inhibition at 1.25 ppm (Botrytis cinerea; [13]) | inhibition at 2.5 ppm (Botrytis cinerea; [14])

CC12CC1(C)C(=O)N(c1cc(Cl)cc(Cl)c1)C2=O (centres unmarked) [Procymidone]
0%: inhibition at 1.25 ppm (Botrytis cinerea; [13]) | inhibition at 0.3125 ppm (Botrytis cinerea; Botrytis cinerea, single compound, rate 0.3125 ppm) | inhibition at 0.625 ppm (Botrytis cinerea; Botrytis cinerea, single compound, rate 0.625 ppm) | inhibition at 1.25 ppm (Botrytis cinerea; Botrytis cinerea, single compound, rate 1.25 ppm)
50%: inhibition at 2.5 ppm (Botrytis cinerea; [14])

COC(=O)Nc1nc2ccccc2[nH]1 [Carbendazim]
0%: inhibition at 0.015625 ppm ([1]; Monographella nivalis, applied alone, rate 0.015625 ppm) | inhibition at 0.03125 ppm ([1]; Monographella nivalis, applied alone, rate 0.03125 ppm) | inhibition at 0.0625 ppm ([1]; Monographella nivalis, applied alone, rate 0.0625 ppm)

[Mn+2].[O-2] [Manganese oxide]
0%: Activity (%) [1, 15] | Activity (%) ([1]; applied alone, rate 0.3125 ppm) | Activity (%) ([1]; applied alone, rate 0.625 ppm) | Activity (%) ([1]; applied alone, rate 1.25 ppm) | Activity (%) ([1]; applied alone, rate 2.5 ppm)

CON=C(C(=O)OC)c1ccccc1CON=C(C)c1cccc(C(F)(F)F)c1 [Trifloxystrobin]
0%: inhibition at 0.0125 ppm (Botrytis cinerea; Botrytis cinerea, alone, rate 0.0125 ppm)
50%: inhibition at 0.05 ppm (Botrytis cinerea; Botrytis cinerea, alone, rate 0.05 ppm) | inhibition at 0.1 ppm (Botrytis cinerea; Botrytis cinerea, alone, rate 0.1 ppm) | inhibition at 0.5 ppm (Botrytis cinerea; Botrytis cinerea, alone, rate 0.5 ppm) | inhibition at 1 ppm (Botrytis cinerea; Botrytis cinerea, alone, rate 1 ppm) | inhibition at 2 ppm (Botrytis cinerea; Botrytis cinerea, alone, rate 2 ppm)
20%: inhibition at 0.025 ppm (Botrytis cinerea; Botrytis cinerea, alone, rate 0.025 ppm)

CP(=O)(O)CCC(N)C(=O)O (centres unmarked) [Glufosinate]
0%: inhibition at 0.3125 ppm [1, 7] | inhibition at 0.625 ppm [1, 8] | inhibition at 1.25 ppm [1, 9] | inhibition at 2.5 ppm [1, 10] | inhibition at 5 ppm [1, 11] | inhibition at 2.5 ppm (Botrytis cinerea; Botrytis cinerea, read-out: Activity (%), alone, rate 2.5 ppm) | inhibition at 5 ppm (Botrytis cinerea; Botrytis cinerea, read-out: Activity (%), alone, rate 5 ppm) | inhibition at 10 ppm (Botrytis cinerea; Botrytis cinerea, read-out: Activity (%), alone, rate 10 ppm) | inhibition at 20 ppm (Botrytis cinerea; Botrytis cinerea, read-out: Activity (%), alone, rate 20 ppm)

COCCOCc1nc(C(F)(F)F)ccc1C(=O)C1=C(O)C2CCC(C2)C1=O (centres unmarked) [Bicyclopyrone]
0%: Activity (%) ([1]; applied alone, rate 0.078125 ppm) | Activity (%) [1, 15] | Activity (%) ([1]; applied alone, rate 0.3125 ppm) | Activity (%) (Botrytis cinerea; alone, rate 1.25 ppm) | Activity (%) (Botrytis cinerea; alone, rate 2.5 ppm) | Activity (%) (Botrytis cinerea; alone, rate 5 ppm)

CCN(C)/C=N/c1cc(OC)c(O[C@H]2CC[C@@H](C(C)C)CC2)nc1C [Q.248]
≥ 50%: pest or weed control at 200 ppm (Pyrenophora teres) | pest or weed control at 200 ppm [2] | pest or weed control at 200 ppm [3] | pest or weed control at 200 ppm [4]

CCN(C)/C=N/c1cc(OC)c(OC(C)c2cc(F)cc(F)c2)nc1C (centres unmarked) [Q.214]
≥ 50%: pest or weed control at 200 ppm (Pyrenophora teres) | pest or weed control at 200 ppm [2] | pest or weed control at 200 ppm [3] | pest or weed control at 200 ppm [4]

C=CCOC1CCC(Oc2nc(C)c(/N=C/N(C)CC)cc2Br)CC1 (centres unmarked) [Q.212]
≥ 50%: pest or weed control at 200 ppm (Pyrenophora teres) | pest or weed control at 200 ppm [2] | pest or weed control at 200 ppm [3] | pest or weed control at 200 ppm [4]

CCN(C)/C=N/c1cc(Br)c(OC(C)Cc2cc(C)cc(C)c2)nc1C (centres unmarked) [Q.219]
≥ 50%: pest or weed control at 200 ppm (Pyrenophora teres) | pest or weed control at 200 ppm [2] | pest or weed control at 200 ppm [3] | pest or weed control at 200 ppm [4]

CCN(C)/C=N/c1cc(Br)c(OC2CC(C)C(C)C2)nc1C (centres unmarked) [Q.382]
≥ 50%: pest or weed control at 200 ppm (Pyrenophora teres) | pest or weed control at 200 ppm [2] | pest or weed control at 200 ppm [3] | pest or weed control at 200 ppm [4]

CCN(C)/C=N/c1cc(I)c(OCc2ccccc2C)nc1C [Q.386]
≥ 50%: pest or weed control at 200 ppm (Pyrenophora teres) | pest or weed control at 200 ppm [2] | pest or weed control at 200 ppm [3] | pest or weed control at 200 ppm [4]

CCN(C)/C=N/c1cc(Br)c(OC2CC(C)=C(C)C2)nc1C [Q.315]
≥ 50%: pest or weed control at 200 ppm (Pyrenophora teres) | pest or weed control at 200 ppm [2] | pest or weed control at 200 ppm [3] | pest or weed control at 200 ppm [4]

C=Cc1cccc(C(C)Oc2nc(C)c(/N=C/N(C)CC)cc2Br)c1 (centres unmarked) [Q.278]
≥ 50%: pest or weed control at 200 ppm (Pyrenophora teres) | pest or weed control at 200 ppm [2] | pest or weed control at 200 ppm [3] | pest or weed control at 200 ppm [4]

CCN(C)/C=N/c1cc(Br)c(OCc2cccc(Br)c2)nc1C [Q.101]
≥ 50%: pest or weed control at 200 ppm (Pyrenophora teres) | pest or weed control at 200 ppm [2] | pest or weed control at 200 ppm [3] | pest or weed control at 200 ppm [4]

CCN(C)/C=N/c1cc(Br)c(OCc2ccccc2C#N)nc1C [Q.304]
≥ 50%: pest or weed control at 200 ppm (Pyrenophora teres) | pest or weed control at 200 ppm [2] | pest or weed control at 200 ppm [3] | pest or weed control at 200 ppm [4]

CCN(C)/C=N/c1cc(Br)c(OC2CCN(C(=O)OC(C)(C)C)CC2)nc1C [Q.038]
≥ 50%: pest or weed control at 200 ppm (Pyrenophora teres) | pest or weed control at 200 ppm [2] | pest or weed control at 200 ppm [3] | pest or weed control at 200 ppm [4]

CCN(C)/C=N/c1cc(Br)c(OCCC[Si](C)(C)C)nc1C [Q.015]
≥ 50%: pest or weed control at 200 ppm (Pyrenophora teres) | pest or weed control at 200 ppm [2] | pest or weed control at 200 ppm [3] | pest or weed control at 200 ppm [4]

CCN(C)/C=N/c1cc(Br)c(OC2CCC(F)(F)CC2)nc1C [Q.375]
≥ 50%: pest or weed control at 200 ppm (Pyrenophora teres) | pest or weed control at 200 ppm [2] | pest or weed control at 200 ppm [3] | pest or weed control at 200 ppm [4]

CCN(C)/C=N/c1cc(Br)c(OC2CCC(OC)CC2)nc1C (centres unmarked) [Q.166]
≥ 50%: pest or weed control at 200 ppm (Pyrenophora teres) | pest or weed control at 200 ppm [2] | pest or weed control at 200 ppm [3] | pest or weed control at 200 ppm [4]

CCN(C)/C=N/c1cc(-c2ccccc2)c(OC2CC=CC2)nc1C [Q.262]
≥ 50%: pest or weed control at 200 ppm (Pyrenophora teres) | pest or weed control at 200 ppm [2] | pest or weed control at 200 ppm [3] | pest or weed control at 200 ppm [4]
